Experiments:
CXCR4 = details: vs. control
Text: (§1) Leukemic blasts (1 × 10^6 per mouse) were then secondarily transplanted into sublethally irradiated NSG mice for treatment experiments. […] After sacrifice, cells were isolated from bone marrow, spleen, and peripheral blood; counted; and stained with anti-human FACS antibodies (CD19- FITC, CD45-PE/APC, 12G5 CXCR4-APC, 1D9 CXCR4-PE, CXCR7-PerCP, and/or CD49d-PE-Cy5).

[1] = test system: infant MLL-R ALL primary samples; assay: xenograft of infant MLL-R ALL, leukemic burden; type: in vivo, human blasts in NSG mice
Text: Therefore, we transplanted primary samples from infants with MLL-R ALL. […] To make our xenograft model even more aggressive, we transplanted cells that had already been passaged once through NOD/SCID/γc^null (NSG) mice in order to select for leukemia-initiating cells from the cryopreserved primary samples. We performed this experiment using 4 different infant MLL-R ALL primary samples (Figure 6A).
Mice were sacrificed at the start of week 4, or 4 days after the last treatment. […] Overall leukemic burden was quantified by averaging the percentage of blasts (human CD45+ and CD19+) detected in the bone marrow, spleen, and peripheral blood. Quantification of leukemic blasts was performed in duplicate.
Cryopreserved primary ALL cells were thawed, counted (TC10 Automated Cell Counter, BioRad, Hercules, CA), and resuspended in cold PBS. Adult NSG mice (Jackson Laboratories, Bar Harbor, ME) were sublethally irradiated (200 centiGray) 4 hours prior to the transplantation of 1 × 10^6 viable cells via tail vein injection. Mice were started on Uniprim medicated feed (Harlan Laboratories, Frederick, MD) ≥ 24 hours prior to transplantation in order to decrease opportunistic infections. Peripheral blood was collected via cheek venipuncture 4 to 6 weeks post-transplant and analyzed by FACS after staining with anti-human CD19-FITC and anti-human CD45-PE (BD Pharmingen). Leukemic blasts were defined as cells that co-expressed human CD45 and human CD19. Mice were sacrificed 2 to 4 weeks post-engraftment and leukemic cells were harvested from the spleen and bone marrow.
as §1

CD49d = CD49d surface expression in leukemic blasts from xenografted mice; type: in vivo, human; details: bone marrow, spleen and peripheral blood blasts, compared to control; differences not statistically significant
Text: as §1

[2] = overall health of xenografted mice; details: 3 consecutive days for 2 weeks; POL5551 5 mg/kg s.c., cytarabine 200 mg/kg i.p.
Text: (§2) CXCR4 antagonism has been advanced clinically in acute leukemia. Trials of plerixafor as a chemosensitizing agent have been completed in adults with relapsed/refractory and newly-diagnosed AML, [33] and children with relapsed/refractory acute leukemias. One concern about CXCR4 antagonism is that mobilized hematopoietic stem cells will become more susceptible to chemotherapy and lead to delayed blood count recovery.
as §1

surface CXCR4 [3] = target: T1, surface CXCR4 (Homo sapiens, UniProt P61073); assay: 12G5 anti-CXCR4 antibody binding (FACS), ALL cell lines
T1 construct: endogenous in cells; host or cells: pediatric ALL cell lines (pre-B: Nalm-6, HB-1119 and others; T cell: Jurkat, CCRF-CEM-1301 and others)
T1 sequence (P61073 whole entry): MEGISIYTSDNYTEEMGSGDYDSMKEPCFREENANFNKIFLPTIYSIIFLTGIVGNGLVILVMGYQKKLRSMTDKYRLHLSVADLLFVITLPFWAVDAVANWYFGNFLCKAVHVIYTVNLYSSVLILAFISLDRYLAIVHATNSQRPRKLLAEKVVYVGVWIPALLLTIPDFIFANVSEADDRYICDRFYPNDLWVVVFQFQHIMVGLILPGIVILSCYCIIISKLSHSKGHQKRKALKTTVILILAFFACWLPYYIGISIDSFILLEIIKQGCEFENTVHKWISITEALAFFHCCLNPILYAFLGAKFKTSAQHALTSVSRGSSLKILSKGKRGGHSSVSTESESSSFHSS
Protocol: We then harvested cells and measured binding of the 12G5 anti-CXCR4 antibody, which attaches to the SDF-1α binding site of CXCR4, by FACS as a marker for surface CXCR4 expression.
12G5 anti-CXCR4 antibody binding was measured by FACS and MFI were normalized to control at each time point.
Conversely, 1D9 antibody binding is a measure of total surface CXCR4. […] At multiple time points, we measured binding to surface CXCR4 by flow cytometry using 3 anti-CXCR4 antibodies: 12G5, 1D9, and 2B11.
Cells were harvested at multiple time points, washed with ice-cold wash buffer (PBS with 0.5% bovine serum albumin, Sigma-Aldrich), stained with antibodies at manufacturer-recommended concentrations (12G5 anti-human CD184 [CXCR4]-APC, eBioscience, San Diego, CA; 12G5 anti-human CD184-PE-Cy5, BD Pharmingen, San Diego, CA; 1D9 anti-human CD184-PE, BD Pharmingen; 2B11 anti-mouse CD184-APC, eBioscience; anti-human CXCR7- PerCP, R&D Systems, Minneapolis, MN), washed, fixed with 1% paraformaldehyde (VWR, Radnor, PA), and stored at 4°C in the dark until analysis on a FACSCalibur (BD Biosciences, San Jose, CA). A live gate was drawn using FlowJo (TreeStar, Ashland, OR) according to forward/side scatter properties and used to calculate the MFI. MFI were normalized to the isotype control (IC) MFI at each time point and then normalized to the MFI:IC ratio of control-treated (0 nM) samples.

CXCR7 = details: ALL; cited from earlier work
Text: (§3) CXCR7 is a second receptor for SDF-1α, [24, 25] while VLA-4 is an integrin, [26] and both are important in the interaction of leukemia cells with the bone marrow stromal microenvironment.

[4] = test system: pediatric ALL and acute myeloid leukemia (AML); details: cited from earlier work
Text: ALL is the most common pediatric malignancy. […] However, children and young adults with high-risk and relapsed/refractory ALL continue to have suboptimal outcomes. […] Specifically, interaction between the cell surface receptor CXCR4 ...

acute leukemias [5] = details: cited from earlier work
Text: as §2, with “recovery. […] With regards to ...” for “recovery.”

surface CXCR4 [6] = details: leukemic blasts; cited from earlier work
surface CXCR4 [7] = details: leukemic blasts; cited from earlier work; remark: listed apart in the source
acute leukemias [8] = details: several preclinical studies; cited from earlier work
Text: Efforts to improve outcomes in pediatric ALL have largely been focused on factors intrinsic to the leukemic blast, such as genetic mutations or alterations in gene expression. However, it is likely that survival signals from the bone marrow microenvironment also contribute to treatment failure and relapse. As such, many groups have studied CXCR4 antagonism as a means to improve outcomes in acute leukemias. […] Our paper is ...

ERK1/2 = assay: SDF-1α-induced phosphorylation of ERK1/2 (PhosphoFACS); type: cell-based, human; details: control-treated cells, SDF-1α 75 ng/mL for 15 minutes
Text: as §3

## Nc1ccn([C@@H]2O[C@H](CO)[C@@H](O)[C@@H]2O)c(=O)n1 [cytarabine]
CXCR4
  12G5 antibody binding in blasts from bone marrow and peripheral blood: moderate but non-significant decrease in 12G5 antibody binding
[1]; 3 consecutive days for 2 weeks, vs. vehicle control
  overall leukemic burden compared to vehicle control: significantly decreased total leukemic burden compared to vehicle control
[1]; average of bone marrow, spleen, peripheral blood, 4 primary samples pooled, n = 5 mice/cohort, POL5551 5 mg/kg s.c., cytarabine 200 mg/kg i.p., 3 consecutive days for 2 weeks, vehicle control 56.2%
  overall leukemic burden: 36.7%
[1]; bone marrow, cytarabine 200 mg/kg i.p., vs. vehicle control
  leukemic burden in bone marrow compared to vehicle control: did not lead to a significant decrease in leukemic burden compared to vehicle control
[1]; bone marrow, POL5551 5 mg/kg s.c., cytarabine 200 mg/kg i.p., 3 consecutive days for 2 weeks
  leukemic burden, bone marrow: 49.5%
[1]; peripheral blood, POL5551 5 mg/kg s.c., cytarabine 200 mg/kg i.p., 3 consecutive days for 2 weeks
  leukemic burden, blood: 29.6%
[1]; spleen, POL5551 5 mg/kg s.c., cytarabine 200 mg/kg i.p., 3 consecutive days for 2 weeks
  leukemic burden, spleen: 30.8%
CD49d
  CD49d mean fluorescence index (MFI): increased
[2]
  appearance of mice at sacrifice: thin and hunched at sacrifice

## c1cc(CN2CCCNCCNCCCNCC2)ccc1CN1CCCNCCNCCCNCC1 [plerixafor]
Surface CXCR4 [3]; ALL cell lines, 48-hour time course
  12G5 antibody binding, potency relative to POL5551 / plerixafor: several-fold higher concentrations of plerixafor were needed to achieve similar levels of reduction of 12G5 antibody binding
Surface CXCR4 [3]; NALM-6, read-out: maximum inhibition of 12G5 antibody binding
  inhibition at 0.04 µM: ~20%
CXCR7
  surface expression of CXCR7: increase in surface expression of CXCR7
[4]
  stromal protection and chemotherapy resistance: could reverse stromal protection and chemotherapy resistance
Acute leukemias [5]; phase 1/2 trials of plerixafor
  prolonged count recovery: none of them reported prolonged count recovery
Acute leukemias [5]; phase 1/2 trials, adults with AML, children with relapsed/refractory acute leukemias
  tolerability and efficacy as a chemosensitizing agent: showed tolerability and efficacy of plerixafor as a chemosensitizing agent
Acute leukemias [5]; plerixafor trials
  development of extramedullary disease after treatment: none of the aforementioned trials reported the development of extramedullary disease after treatment
Surface CXCR4 [6]
  12G5 antibody binding to surface CXCR4: decrease in 12G5 antibody binding
Surface CXCR4 [7]
  1D9 antibody binding to surface CXCR4: increase in 1D9 antibody binding
Acute leukemias [8]
  in vivo sensitivity to anti-leukemic therapies: enhances in vivo sensitivity to anti-leukemic therapies

## SDF-1α
ERK1/2
  ERK1/2 phosphorylation, effect of SDF-1α: increase in phosphorylation of ERK1/2
